From paper PMC9321043, “Synthesis, Structure–Activity Relationships, and Parasitological Profiling of Brussonol Derivatives as New Plasmodium falciparum Inhibitors” (Pharmaceuticals, 2022)
Where two headings read alike, the source gives them in different places.

Columns and labels:
[1] = test system: P. falciparum (3D7 strain); assay: In vitro antiplasmodial activity, P. falciparum blood-stage parasites, SYBR Green I; assay type: cell-based, Plasmodium falciparum; conditions: 3D7 strain, 72 h, SYBR Green I, read-out: IC50^Pf
Procedure: The P. falciparum strains were cultivated in human blood cells (hRBC) O^+, while P. knowlesi was cultivated in rhesus red blood cells (rRBC) as described. P. falciparum complete RPMI (consisting of RPMI-1640, supplemented with 0.2% NaHCO3, 25 mM HEPES (pH 7.4), 11 mM D-glucose, 10 mg/L hypoxanthine, 25 mg/L gentamicin, and 0.5% (m/v) AlbuMAX II). The parasitemias of these cultures were maintained below 10% with 2.5% hematocrit. P. knowlesi complete RPMI (consisting of RPMI-1640 supplemented with 25 mM HEPES, […] hypoxanthine, 0.26% NaHCO3, 10 mg/L gentamicin, and 1% Albumax II). This culture was maintained with RBCs up to 5% hematocrit. The culture medium was changed daily, and all cultures were maintained under a 90% N2/5% CO2/5% O2 gas mixture at 37 °C. All compounds were purchased from Sigma-Aldrich (Cotia, Brazil).
The antiplasmodial activity of brussonol and derivatives was evaluated against P. falciparum blood parasites 3D7(chloroquine-sensitive). The parasites were synchronized through sterile 5% (m/v) D-sorbitol treatment over 10 min at 37 °C for the enrichment of ring stages. Centrifugation 600× g over 5 min was used to pellet the cultures. The parasitemia was determined by microscope analysis of thin blood smears stained with Giemsa 10% (v/v) after fixation with methanol. The initial parasitemia was calculated for 1000 red blood cells (RBCs), and cultures were diluted to 0.5% parasitemia and 2% hematocrit by the addition of the appropriate volumes of blood and medium. A total of 180 µL aliquots of parasites were distributed into 96-well plates followed by the addition of 20 µL of previously prepared aliquots of ten-fold concentrated compounds, the range of concentrations tested was 10–1.53 µM. Negative and positive control wells, which correspond to non-parasitized erythrocytes and parasite cultures in the absence of compounds, were set in parallel. The DMSO concentration was maintained below 0.05% (v/v) for all compounds except for brussonol, which was 0.5%. The plates were incubated for 72 h at 37 °C in a humidified incubator with a gas mixture of 90% N2, 5% O2, and 5% CO2. Each test was performed in duplicates, and the results were compared with the control cultures. Once completed incubation, the culture medium was removed, and the cells were resuspended in 100 µL PBS (116 mM NaCl, 10 mM NaH2PO4, 3 mM KH2PO4) and lysed with 100 µL lysis buffer (20 mM Tris base, 5 mM EDTA, 0.0008% (v/v) Triton X-100, 0.008% (m/v) saponin, pH 8.0) containing 0.002% (v/v) SYBR Green I. Plates were incubated for 30 min at room temperature, and a SpectraMAX Gemini EM plate reader (Molecular Devices Corp., Sunnyvale, CA) was used to determine the fluorescence corresponding to parasitic density (excitation at 485 nm, emission at 535 nm). The half-maximal inhibitory concentration (IC50^Pf) was determined by non-linear regression analysis of the resulting concentration–response curve using the software GraphPad Prism version 8.0.1 for Windows, GraphPad Software, San Diego, California USA, www.graphpad.com, accessed on 3 March 2022”.

[2] = test system: HepG2 cells; assay: Cytotoxic test on immortalized cells, MTT; assay type: cell-based, human; conditions: HepG2, 72 h
Procedure: The cytotoxic effects of brussonol and derivatives were evaluated against the human hepatocellular carcinoma cell line (HepG2). The cells were cultivated in an RPMI medium supplemented with 10% (v/v) fetal bovine serum and 25 µg/mL gentamicin. Conditions for the cultivation of these cells were 37 °C and 5% CO2, and every 2 days the supplemented medium was changed.
For experimental procedures, the cells were trypsinized and transferred to a 96-well plate at 30,000 cells per well (180 µL). The plate was incubated at 37 °C and 5% CO2 to allow cell adhesion. Next, 20 µL of serial dilutions of the compounds tested were added to the plate, with a range of concentrations tested from 400–6.25 µM. Cells without any compounds were used as a positive control for growing and the wells containing only medium were used as negative controls. The plate was incubated for 72 h at 37 °C and 5% CO2. After incubation, a microscope was used to determine the highest compound concentration to be used in the experiments (highest concentration without precipitation). A colorimetric assay was used to evaluate cytotoxicity. This assay is based on the metabolic cell activity in the presence of 3-(4,5-dimethylthiazol-2-yl)-2,5-diphenyltetrazolium bromide (MTT). Shortly after incubation, 20 µL of a solution of MTT at 5 mg/mL (solubilized in phosphate buffer) is added to each well. The plate is incubated for 3 to 4 h at 37 °C to allow MTT cleavage in living cells. Then, the supernatant is removed, and 100 µL of dimethylsulfoxide (DMSO) is added to solubilize the purple formazan crystals. The absorbance, which is proportional to the number of viable cells, was determined using a SpectraMAX Plus 384 plate reader (Molecular Devices Corp., Sunnyvale, CA) (λ = 570 nm). All compounds described here were purchased from Sigma-Aldrich (verificar local).
After the IC50 against the parasite and the human cell line is determined, it is possible to calculate the SI. It is calculated as the formula below:SI = IC50^HepG2/IC50^Pf.
For our reference, compounds with SI values higher than 10 are considered well tolerated by the cellular model used, and they are considered for further evaluation.

[3] = test system: hemozoin formation; assay: Hemozoin formation inhibition assay; assay type: biochemical; conditions: hemin 25 µM, pH 4.8, 4 h, one experiment in triplicate
Procedure: 2. Hemozoin Formation Inhibition Assay
The hemozoin formation inhibition assay was performed as described previously.12 Briefly, serial 1:3 dilutions, in a 96‐well plate, wit h brussonol were made in a final volume of 20 μL in a concentration 10 times higher than the final concentration of the assay. Secondly, 90 μ L of freshly prepared hemin (at a final concentration of 25 μM) solution in 1M NaOAc/HOAc buffer pH 4.8 were added followed by addition of 90 μ L of 5.4 mg/L Tween 20 solution freshly prepared. The plates were let to stand for 4 hours at 37 °C followed by resuspension with multichannel pippete and read at 415 and 630 nm using a SpectraMAX Plus 384 plate reader (Molecular Devices Corp., Sunnyvale, CA).
Due to the absence of enough compound, this experiment wa s performed only once, but with internal triplicate. Chloroquine (CQ) and pyrimethamine (PYR) were used as positive and negative control of inhibition, respectively.
Inhibition (%) = 100 – 100 x [(Aco ntro l – Asample) / (Acontrol - Amin)] Acontrol is the difference of the absorbance at 415 and 630 nm of the negative control (Hemin +, Tween 20 ‐, Compound ‐); Amin is the difference of the absorbance at 415 and 630 nm of the positive control (Hemin +, Tween 20 +, Compound ‐ ); Asample is the difference of the absorbance at 415 and 630 nm of the sample. The hemozoin formation inhibition assay was performed to evaluate if brussonol act inhibiting hemozoin formation in P. falciparum. CQ, which is a well‐known inhibitor of hemozoin […]
Figure S1. Hemozoin formation inhibition assay. Different concentrations of CQ (black triangles), PYR (red squares) and brussonol (blue circles) were incubated with heme in triplicates. Th e absorbance was recorded at 415/630 nm to determine the hemozoin formation inhibition. […]

[4] = test system: P. falciparum 3D7 strain; assay: Chemical rescue assay with isopentenyl pyrophosphate (IPP); assay type: cell-based, Plasmodium falciparum; conditions: Plasmodium falciparum, 3D7 strain, 72 h
Source text: To evaluate whether brussonol interfered with the biosynthesis of […] in malaria parasites, we conducted a chemical rescue assay. The assay identifies compounds that interfere with the metabolism of isoprenoids by “rescuing” their growth inhibition through the supplementation of isopentenyl pyrophosphate (IPP), a key precursor of isoprenoid biosynthesis. […] Thus, the chemical rescue assay compares the IC50 values of the tested compound in the presence and absence of IPP. We used fosmidomycin (FOS) as a positive control for growth inhibition rescuing upon supplementation of IPP (Figure 7b). In this assay, compounds that interfere in the metabolism of isoprenoids show a significant increment in the IC50 value in the presence of IPP (Figure 7b).
The chemical rescue assay was carried out as described by Yeh and DeRisi (2011). This assay consists in verifying the IC50 value of the tested compounds with and without the isopentenyl pyrophosphate (IPP), purchased from Isoprenoids, LC (Florida, USA). Briefly, 3D7 strain ring stages were cultured in 96-well plates, with 0.5% parasitemia and 2% hematocrit. Non-parasitized erythrocytes and parasitized erythrocytes without drugs were used as growth controls, and fosmidomycin (FOS) was used as a positive control for chemical rescue. Serial dilutions of brussonol and FOS were prepared in duplicates. In the same 96-well plate, brussonol and FOS had their antiplasmodial activity evaluated with and without supplementation of 200 µM IPP. Plates were incubated for 72 h and analyzed by the SYBR Green I assay.

[5] = test system: cytosolic Ca^2+ in P. falciparum; assay: [Ca2+]cyt measurements in isolated parasites loaded with Fluo-4AM; assay type: cell-based, Plasmodium falciparum
Procedure: One of the compounds identified in the structural similarity search was the cyclopiazonic acid (CPA) (Figure 8a). […] Because of that, brussonol activity on the modulation of the SERCA pump was investigated. To assess the effect of brussonol on calcium mobilization in P. falciparum intraerythrocytic stages, isolated parasites loaded with Fluo-4-AM were exposed to 10 μM brussonol in MOPS Ca^2+ buffer. […] To verify if the brussonol-elicited [Ca^2+]cyt increment originated from the endoplasmic reticulum (ER), targeting the PfSERCA pump, CPA was added before the addition of brussonol. […] In the brussonol-pretreated parasites, the addition of CPA still increased the cytosolic Ca^2 + level (30 ± 5 nM) (Figure 8d).
Isolated parasites were incubated for 1 h at 37 °C with 5 μM of Fluo-4AM in 1 mL MOPS buffer (116 mM NaCl, 5.4 mM KCl, 0.8 mM MgSO4, 5.5 mM D-glucose, 50 mM MOPS, and 2 mM CaCl2, pH 7.2), with 1 mM probenecid to minimize compartmentalization and extrusion of probe. The parasites were washed three times with the same buffer and transferred to a quartz cuvette. Intracellular calcium was measured continuously using a Hitachi F-7000 spectrofluorimeter (Tokyo, Japan) by measurement of the fluorescence (λex = 488 nm and λem = 530 nm) at 37 °C, under agitation. When indicated, 10 µM of cyclopiazonic acid (CPA) or 10 µM of brussonol were added to the cuvette. Maximal fluorescence (Fmax) was determined after the lysis of with digitonin 0.15% (m/v), and minimal fluorescence (Fmin) was determined by adding 25 mM EGTA in 3 M Tris, pH 8.8, until no further decrease in fluorescence was observed. The cytosolic calcium concentration ([Ca^2+]cyt) was calculated from the fluorescence data (F) using a Kd value of 345 nM using the formula:Ca^2 +cyt = 345 × [(F − Fmin)/(Fmax − F)]
The results (n = 2) were analyzed through One-Way ANOVA with Tukey post-test. All compounds described here were purchased from Sigma-Aldrich (verificar local).

[6] = Plasmodium falciparum, 3D7, 72 h

Molecule	IC50 [1, 6] [µM]	also measured
Oc1ccc(O)c2c1C[C@@]13CCCC[C@@H]1C[C@@H]2O3 (racemic) [Compound 5]	> 10	–
COc1c2c(c(OC)c(C(C)C)c1OC)[C@@H]1C[C@H]3C(C)(C)CCC[C@@]3(C2)O1 (racemic) [Compound 8]	~5	IC50 [2]: 170 ± 38 µM; IC50 ([2]; Homo sapiens): > 170 µM
COc1ccc2c(c1OC)C[C@@]13CCCC(C)(C)[C@@H]1C[C@@H]2O3 (racemic) [Compound 9]	> 10	–
COc1c2c(c(Br)c(C(C)C)c1OC)[C@@H]1C[C@H]3C(C)(C)CCC[C@@]3(C2)O1 (racemic) [Compound 10]	~5	IC50 [1]: 5.6 ± 0.1 µM
COc1c2c(c(-c3ccccc3)c(C(C)C)c1OC)[C@@H]1C[C@H]3C(C)(C)CCC[C@@]3(C2)O1 (racemic) [Compound 11]	5.8 ± 0.2	IC50 ([2]; Homo sapiens): > 12 µM
COc1c(C(C)C)cc2c(c1OC)C[C@@]13CCCC[C@@H]1C[C@@H]2O3 (racemic) [Compound 12]	~5	IC50 [1]: 5.6 ± 0.8 µM
CC(C)c1cc2c(c(O)c1O)C[C@@]13CCCC[C@@H]1C[C@@H]2O3 (racemic) [Compound 13]	> 10	–
COc1c2c(c(-c3ccccc3)c(C(C)C)c1OC)[C@@H]1C[C@H]3CCCC[C@@]3(C2)O1 (racemic) [Compound 15]	5.89 ± 0.02	IC50 ([2]; Homo sapiens): > 50 µM
CCN(CC)CCCC(C)Nc1ccnc2cc(Cl)ccc12 (stereo not drawn) [Chloroquine, reference compound]	–	IC50 [3]: 80 µM
COc1ccc2c(c1OC)CC13CCCCC1CC2O3 (stereo not drawn) [Compound 2]	> 10	–
COc1ccc(OC)c2c1CC13CCCCC1CC2O3 (stereo not drawn) [Compound 3]	> 10	–
Oc1ccc2c(c1O)CC13CCCCC1CC2O3 (stereo not drawn) [Compound 4]	> 10	–
O=C1C=CC(=O)C2=C1CC13CCCCC1CC2O3 (stereo not drawn) [Compound 6]	> 10	–
COc1c(C(C)C)cc2c(c1OC)CC13CCCC(C)(C)C1CC2O3 (stereo not drawn) [Compound 7]	5.2 ± 0.4	IC50 ([2]; Homo sapiens): > 192 µM
COc1c2c(c(Br)c(C(C)C)c1OC)C1CC3CCCCC3(C2)O1 (stereo not drawn) [Compound 14]	5.65 ± 0.05	IC50 ([2]; Homo sapiens): > 25 µM
O=CN(O)CCCP(=O)(O)O [fosmidomycin, reference compound]	–	IC50 ([4]; with 200 µM IPP, read-out: IC50 in the presence of IPP): > 20 µM; IC50 ([4]; without IPP, read-out: IC50 in the absence of IPP): 1.2 ± 0.2 µM
cyclopiazonic acid [reference compound]	–	[Ca^2+]cyt rise in brussonol-pretreated parasites ([5]; 10 µM CPA added after 10 µM brussonol): 30 ± 5 nM; [Ca^2+]cyt rise ([5]; 10 µM compound alone, MOPS Ca^2+ buffer, relative to basal level): 23 ± 2 nM
